Experimental data taken from patent publication US20150374705A1, “Substances for treatment or relief of pain” (Shanghai Institues for Biological Sciences, priority 2012, published 2015).
Entries after “also recorded” stand apart in the source; their conditions may differ.

How the values were obtained:
[1] = target: T1, Human recombinant GABAA receptor containing α1 subunit (α1, β3, γ2) (Homo sapiens, UniProt P14867+P18507); assay: Competitive radioligand binding ([3H]Ro-0151788) on membranes of 293 cells, Ki; conditions: human recombinant GABAA subtype containing α1; read-out: Affinity, nM (α1)
T1 construct: expressed in transfected cells; host or cells: 293 cell line
Description: (§1) Different subunits of GABAA receptor were expressed in cell lines, including human kidney epithelial cell line, 293 cell line or L(tk−) cell line. The cells were cultured in medium, and such cells were used as the cellular model for screening drugs to suppress pain. a subunit, β subunit and γ subunit are indispensable for one complete functional GABAA receptor.
(§2) In this example, the inventors established the following cellular models:
(§3) (b) simultaneously expressing α1 subunit (GenBank accession number: NM_001127648.1), β3 subunit and γ2 subunit in 293 cell line, forming the GABAA receptor containing α1 subunit; • (c) simultaneously expressing α2 subunit (for the protein sequence, see GenBank accession number NM_000813.2), β3 subunit and γ2 subunit in 293 cell line, forming the GABAA receptor containing α2 subunit;
(§4) Each of the (a) to (d) above could form a GABAA receptor with complete function.
(§5) Then, the cellular membrane was extracted and the protein concentration was measured. The competitive binding of the substances to be measured and radiolabelled compounds (e.g. 1 nM [^3H]Ro-0151788) were detected respectively to calculate the Ki value of the substances to be measured, see the method described in literature (Ballard T M et al., RO4938581, a novel cognitive enhancer acting at GABAA alpha5 subunit-containing receptors. Psychopharmacology (Berl). 2009 January; 202(1-3): 207-23). If the binding inhibition constant Ki (nM) of α5-GABAA receptor with the candidate substances in experimental group is less than the Ki of the receptor containing other a subunit (α1 subunit, α2 subunit or α3 subunit), then the candidate substance is a potential drugs for preventing, relieving or treating pain. Many methods can be used by those skilled in the art to evaluate the binding capacity of the ligand of α5-GABAA receptor to the α5-GABAA receptor, including but not limiting to the method above.

[2] = target: T2, Human recombinant GABAA receptor containing α3 subunit (α3, β3, γ2) (Homo sapiens, UniProt P18507+P34903); assay: as above; conditions: human recombinant GABAA subtype containing α3; read-out: Affinity, nM (α3)
T2 construct: expressed in transfected cells; host or cells: 293 cell line
Description: as §1, §2
(d) simultaneously expressing α3 subunit (for the protein sequence, see GenBank accession number NM_000808.3), β3 subunit and γ2 subunit in 293 cell line, forming the GABAA receptor containing α3 subunit;
as §4, §5

[3] = target: T3, Human recombinant GABAA receptor containing α5 subunit (α5, β3, γ2) (Homo sapiens, UniProt P18507+P31644); assay: as above; conditions: human recombinant GABAA subtype containing α5; read-out: Affinity, nM (α5)
T3 construct: expressed in transfected cells; host or cells: 293 cell line
Description: as §1, §2
(§6) (a) simultaneously expressing α5 subunit (for the protein sequence, see GenBank accession number NM_001165037.1), β3 subunit (for the protein sequence, see GenBank accession number NM_021912.4) and γ2 subunit (for the protein sequence, see GenBank accession number NM_198904.2) in 293 cell line, forming the GABAA receptor containing α5 subunit;
as §4, §5

[4] = target: T4, Human recombinant GABAA receptor containing α1 subunit (Homo sapiens, UniProt P14867+P18507); assay: Electrophysiological inverse agonist efficacy on GABA-induced current; format: cell-based; conditions: change of GABA-induced current; negative = inhibition
T4 construct: expressed in transfected cells; host or cells: 293 cell line
Description: as §1, §3
(§7) The inventors used electrophysiological methods to measure the inverse agonist efficacy of the substances to be measured, see the method described in literature (Ballard T M et al., RO4938581, a novel cognitive enhancer acting at GABAA alpha5 subunit-containing receptors. Psychopharmacology (Berl). 2009 January; 202 (1-3): 207-23). […] Many methods can be used by those skilled in the art to evaluate the binding capacity of the ligand of α5-GABAA receptor to the α5-GABAA receptor, including but not limiting to the method above.
(§8) Inverse agonist efficacy represents the inhibition percentage of the candidate substance on the current induced by GABA through α5-GABAA receptor=(the current intensity induced by GABA through α5-GABAA receptor with the existence of candidate substance−the current intensity induced by GABA through α5-GABAA receptor without the existence of candidate substance)/the current intensity induced by GABA through α5-GABAA receptor without the existence of candidate substance.

[5] = test system: Human recombinant GABAA receptor containing α2 subunit; assay: as above; format: cell-based; conditions: change of GABA-induced current; negative = inhibition
Description: as §1, §3, §7, §8

[6] = target: T5, Human recombinant α5-GABAA receptor (Homo sapiens, UniProt P18507+P31644); assay: as above; format: cell-based; conditions: change of GABA-induced current; negative = inhibition
T5 construct: expressed in transfected cells; host or cells: 293 cell line
Description: as §1, §6, §7, §8

[7] = test system: CFA induced inflammatory pain model rats (heat pain); assay: CFA induced inflammatory pain model, heat pain threshold; format: in vivo; conditions: rat
[8] = test system: CFA induced inflammatory pain model rats (mechanical pain); assay: CFA induced inflammatory pain model, mechanical pain threshold; format: in vivo; conditions: rat

Structure (SMILES)	Ki [1] [nM]	Ki [2] [nM]	Ki [3] [nM]	Inverse agonist efficacy, % (α1) [4] [%]	Inverse agonist efficacy, % (α2) [5] [%]	Inverse agonist efficacy, % (α5) [6] [%]	Suppression of heat pain ([7]; oral administration, 3 days after CFA model, 1 hour after administration)	Suppression of mechanical pain ([8]; oral administration, 7 days after CFA model, 1 hour after administration)	Suppression of heat pain ([7]; 3 mg/kg intraperitoneal, 3 days after CFA, 0.5-3.0 hours after administration, listed as A5I, 3 mg/kg)	Suppression of mechanical pain ([8]; 3 mg/kg intraperitoneal, 7 days after CFA, 0.5-24 hours after administration, listed as A5I, 3 mg/kg)
Cn1ncnc1COc1nn2c(-c3cc(CO)on3)nncc2c1C(C)(C)C [MRK016-M3, (3-(3-tert-butyl-2-((2-methyl-2H-1,2,4-triazol-3-yl)methoxy)pyrazolo [1,5-d][1,2,4]triazin-7-yl)isoxazol-5-yl)methanol]	1.5	0.69	1.1	−11	−1	−52	significantly suppress inflammatory pain; also recorded: significantly suppressed pain	significantly suppress inflammatory pain; also recorded: significantly suppressed pain	–	–
Cc1cc(-c2nnc3c4ccccc4c(OCC4=CC(C)C=N4)nn23)no1 (stereo not drawn) [α5IA]	0.88	0.61	0.66	−4	12	−29	–	–	efficiently inhibit inflammatory pain; also recorded: efficiently treat heat pain	efficiently treat mechanical pain; also recorded: efficiently inhibit inflammatory pain
